Measurements from paper PMC10485906, “Development of a Dihydroquinoline–Pyrazoline GluN2C/2D-Selective Negative Allosteric Modulator of the N-Methyl-D-aspartate Receptor” (ACS Chemical Neuroscience, 2023).
Values joined by “and” are separate entries in the source; they are usually repeats but may differ in a detail not shown here. Identical values can stand only once. Marks after values point to notes of the source that are not given here.

Tests used:
[1] = biological target: T1, GluN1/GluN2A (Rattus norvegicus, UniProt P35439+Q00959); experiment: Two-electrode voltage-clamp recordings, Xenopus laevis oocytes, GluN1/GluN2A; type: cell-based; conditions: 100 μM glutamate, 30 μM glycine; for IC50: read-out: IC50 GluN2A [95% CI]; for remaining activity at 30 µM: 30 μM test compound, mean ± SEM, read-out: I 30 μM / I control GluN2A
T1 construct: expressed in transfected cells; host or cells: Xenopus laevis oocytes (cRNA injection)
T1 sequence (Q00959 23-1464, other chains not shown): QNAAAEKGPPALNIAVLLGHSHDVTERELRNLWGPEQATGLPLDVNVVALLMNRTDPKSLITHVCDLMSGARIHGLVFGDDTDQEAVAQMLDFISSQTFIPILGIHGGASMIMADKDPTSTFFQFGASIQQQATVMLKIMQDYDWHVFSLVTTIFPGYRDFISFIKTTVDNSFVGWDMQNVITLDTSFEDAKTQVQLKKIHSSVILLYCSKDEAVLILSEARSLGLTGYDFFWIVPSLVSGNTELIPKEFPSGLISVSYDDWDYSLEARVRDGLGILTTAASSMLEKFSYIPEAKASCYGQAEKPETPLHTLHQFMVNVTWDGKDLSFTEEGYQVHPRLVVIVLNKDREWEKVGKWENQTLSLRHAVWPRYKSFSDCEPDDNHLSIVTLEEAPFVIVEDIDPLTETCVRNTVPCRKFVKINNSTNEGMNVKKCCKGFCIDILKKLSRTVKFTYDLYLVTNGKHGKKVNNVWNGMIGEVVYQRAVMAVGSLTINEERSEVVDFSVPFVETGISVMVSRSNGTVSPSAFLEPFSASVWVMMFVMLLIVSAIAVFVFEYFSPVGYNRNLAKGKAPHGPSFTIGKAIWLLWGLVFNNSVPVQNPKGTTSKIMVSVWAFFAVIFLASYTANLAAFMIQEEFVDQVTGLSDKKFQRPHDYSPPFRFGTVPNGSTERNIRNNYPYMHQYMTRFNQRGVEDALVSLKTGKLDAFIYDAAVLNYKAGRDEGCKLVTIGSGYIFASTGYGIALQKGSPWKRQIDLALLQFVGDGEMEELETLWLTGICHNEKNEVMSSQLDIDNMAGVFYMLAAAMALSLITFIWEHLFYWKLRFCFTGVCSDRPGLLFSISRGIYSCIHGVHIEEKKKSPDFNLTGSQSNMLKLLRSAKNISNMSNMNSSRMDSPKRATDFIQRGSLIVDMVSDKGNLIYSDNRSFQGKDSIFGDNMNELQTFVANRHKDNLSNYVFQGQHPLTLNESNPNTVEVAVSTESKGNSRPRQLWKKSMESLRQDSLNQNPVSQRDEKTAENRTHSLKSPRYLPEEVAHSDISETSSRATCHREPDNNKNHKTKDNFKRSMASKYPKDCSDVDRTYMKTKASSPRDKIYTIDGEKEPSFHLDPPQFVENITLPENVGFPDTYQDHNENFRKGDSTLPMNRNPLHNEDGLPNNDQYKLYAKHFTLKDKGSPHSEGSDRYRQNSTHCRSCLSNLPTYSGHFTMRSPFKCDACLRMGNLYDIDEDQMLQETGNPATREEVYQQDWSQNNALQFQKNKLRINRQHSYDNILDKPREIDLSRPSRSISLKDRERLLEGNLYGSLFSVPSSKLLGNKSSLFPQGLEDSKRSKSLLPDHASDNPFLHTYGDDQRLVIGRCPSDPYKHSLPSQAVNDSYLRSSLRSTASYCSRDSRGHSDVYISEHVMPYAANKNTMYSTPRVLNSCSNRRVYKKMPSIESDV
Description: (§1) All target compounds were evaluated for NMDAR antagonism using two-electrode voltage-clamp recordings from Xenopus laevis oocytes coexpressing recombinant GluN1 and GluN2A-D subunits (Table 1).[32],[42],[33] All analogues were assessed as either a racemic (2b, 2e–2r) or diastereomeric (2d) mixture to simplify purification and streamline in vitro analysis. […] Moreover, as illustrated by the significant loss of NMDAR activity observed with nitrile 2e, the DQP allosteric site necessitated an H-bond donor/acceptor relationship at the carboxylate position. […] The loss of NMDAR activity observed with the trifluoro analogue 2j (Table S1) reinforced the necessity for an H-bond donor/acceptor relationship to maintain allosteric binding and established that fluorine substitution alone is ineffective. […] A single methyl substitution of the amide in compound 2q improved selectivity against GluN2A and had similar potency as 2a, whereas dual methyl substitution reduced potency (2r). We expect that this is likely due to the ability of the […] of the amide to accept hydrogen bonds while the amide can readily donate a proton.
(§2) Unfertilized Xenopus laevis oocytes were obtained from Ecocyte (Austin, TX), or ovaries were purchased from Xenopus 1 (Dexter, MI) and oocytes prepared as previously described.[42],[47] Two-electrode voltage-clamp recordings were performed on oocytes expressing recombinant rat GluN1/GluN2A, GluN1/GluN2B, GluN1/GluN2C, or GluN1/GluN2D. cDNAs for rat GluN1-1a (referred to as GluN1; NCBI Reference Sequence NM_017010.2), GluN2A (NM_012573.4), GluN2B (NM_012574.1), GluN2C (NM_012575.3), and GluN2D (NM_022797.2) were provided by Dr. S. Heinemann from the Salk Institute, Dr. S. Nakanishi from Kyoto University, and Dr. P. Seeburg from the University of Heidelberg. Oocyte isolation, cRNA synthesis, and cRNA injections were performed as previously described.[32],[33],[47] Briefly, Xenopus laevis oocytes were injected with 5–10 ng of cRNA in RNase-free water with the GluN1:GluN2 ratio ranging from 1:1 to 1:5. Oocytes were incubated at 15–19 °C in Barth’s solution consisting of (in mM) 88 NaCl, 1 KCl, 2.4 NaHCO3, 10 HEPES, 0.82 MgSO4, 0.33 Ca(NO3)2, and 0.41 CaCl2 supplemented with 100 μg/mL gentamycin, 40 μg/mL streptomycin, and 50 μg/mL penicillin. Recordings were performed 2–4 days after injection with extracellular recording solution containing (in mM) 90 NaCl, 1 KCl, 10 HEPES, 0.5 BaCl2, and 0.01 EDTA at pH 7.4 adjusted with NaOH. To prevent a gradual increase in current response over the course of the experiment, some oocytes expressing GluN1/GluN2A were injected with 20–50 nL of 2–50 mM K-BAPTA. Concentration–response curves for test compounds were generated by applying a maximally effective concentration of glutamate (100 μM) and glycine (30 μM), followed by glutamate and glycine with variable concentrations of test compounds up to 30 μM. The test compounds were prepared as 20 mM stock solutions in DMSO and diluted to the final concentration in recording solution. The DMSO content was 0.05–0.5% (v/v). […] Methods for off-target analysis are given in the Supporting Information.
(§3) Confidence intervals were determined for the log(IC50). The time course of relaxation during inhibitor application or deactivation following rapid removal of NMDA or glutamate was fitted by the equation [drawing 5] 2

[2] = biological target: T2, GluN1/GluN2A (Rattus norvegicus, UniProt Q00959); experiment: as above; type: cell-based; conditions: mean ± SEM; for I3 μM/Icontrol GluN2A: tested at 3 μM; for I3 μM/Icontrol GluN2A / I / I control GluN2A: 100 μM glutamate, 30 μM glycine; for I / I control GluN2A: tested at 10 μM (footnote b)
T2 construct: expressed in transfected cells; host or cells: Xenopus laevis oocytes (cRNA injection)
T2 sequence (Q00959 23-1464, other chains not shown): as above
Description: as §1, §2, §3

Row | IC50 [1] [µM] | I3 μM/Icontrol GluN2A [2] | remaining activity at 30 µM [1] [%] | I / I control GluN2A [2] | Compound | also measured
1 | 5.6 | 61 ± 2.4% and 61 ± 2.4 ^b (2,10) % |  |  | O=C(O)CC(F)(F)C(=O)N1N=C(c2c(-c3ccc(Cl)cc3)c3ccccc3[nH]c2=O)CC1c1ccc(Cl)cc1 (stereo not shown) [2i] | I3 μM/Icontrol GluN2A ([2]; listed as racemic 2i): 61 ± 2.4 (2, 10) %
2 | 5.8 | 35 ± 6.5 ^b (3,9) % |  |  | NC(=O)CC(F)(F)C(=O)N1N=C(c2c(-c3ccc(Cl)cc3)c3ccccc3[nH]c2=O)CC1c1ccc(Cl)cc1 (stereo not shown) [2k] | 
3 |  |  | 100 ± 3.2 |  | CCOC(=O)CC(F)(F)C(=O)N1N=C(c2c(-c3ccc(Cl)cc3)c3ccccc3[nH]c2=O)CC1c1ccc(Cl)cc1 (stereo not shown) [2l] | 
4 |  |  | 97 ± 2.3 |  | CC(C)OC(=O)CC(F)(F)C(=O)N1N=C(c2c(-c3ccc(Cl)cc3)c3ccccc3[nH]c2=O)CC1c1ccc(Cl)cc1 (stereo not shown) [2m] | 
5 |  |  | 100 ± 1.3 |  | O=C(CC(F)(F)C(=O)N1N=C(c2c(-c3ccc(Cl)cc3)c3ccccc3[nH]c2=O)CC1c1ccc(Cl)cc1)OCC1CC1 (stereo not shown) [2n] | 
6 |  |  |  | 97 ± 2.2% | CC(C)(C)COC(=O)CC(F)(F)C(=O)N1N=C(c2c(-c3ccc(Cl)cc3)c3ccccc3[nH]c2=O)CC1c1ccc(Cl)cc1 (stereo not shown) [2o] | 
7 |  |  | 105 ± 0.72 |  | O=C(CC(F)(F)C(=O)N1N=C(c2c(-c3ccc(Cl)cc3)c3ccccc3[nH]c2=O)CC1c1ccc(Cl)cc1)OCc1ccccc1 (stereo not shown) [2p] | 
8 | 37 |  |  | 83 ± 3.9 ^b (2,12) % | CNC(=O)CC(F)(F)C(=O)N1N=C(c2c(-c3ccc(Cl)cc3)c3ccccc3[nH]c2=O)CC1c1ccc(Cl)cc1 (stereo not shown) [2q] | 
9 |  |  |  | 70 ± 3.9 ^b (3,13) % | CN(C)C(=O)CC(F)(F)C(=O)N1N=C(c2c(-c3ccc(Cl)cc3)c3ccccc3[nH]c2=O)CC1c1ccc(Cl)cc1 (stereo not shown) [2r] | 
10 | 4.7 | 67 ± 2.0 (3, 14) % |  |  | O=C(O)CC(F)(F)C(=O)N1N=C(c2c(-c3ccc(Cl)cc3)c3ccccc3[nH]c2=O)C[C@H]1c1ccc(Cl)cc1 [(S)-(−)-2i] | % control GluN1/GluN2A ([2]; 1 µM compound, 100 µM glutamate, 30 µM glycine): 74 ± 2.1%
